Entries after “also recorded” stand apart in the source; their conditions may differ.
Columns and labels:
[1] = test system: HIV-1 6 type D (primary isolate); test: anti-HIV-1 activity, HIV-1 6 type D (primary isolate)/PBMC; type: cell-based; details: Human immunodeficiency virus 1, Table 4
Protocol: The virus production was measured by quantifying the activity of the inverse transcriptase associated with viral particles released into the culture supernatant. In short, cells were infected with 100 TCID50 for 30 minutes; after adsorption of the virus, unbound particles were removed by two washings and the cells were cultivated in the presence of different concentrations of the compounds tested for 5 days before determining the viral production. The concentration inhibiting 50% of the viral multiplication (IC50) came from the computer plot of the median effect of the dose effect results (Chou et al. Elsevier Science Publishers, Cambridge U.K. (1985), 19-28).
Thirty two compounds according to the invention were studied for their anti-HIV-1 biological activity. […] This compound was then tested with other colonies and other cell lines (Table 4).

IT of HIV-2 = IT of HIV-2 (Human immunodeficiency virus type 2 (ISOLATE ROD), UniProt P04584); test: inhibition of the inverse transcriptase of HIV-2; type: biochemical; details: at concentrations at which the IT of HIV-1 was well inhibited (FIG. 9)
Sequence of IT of HIV-2 (P04584 613-1171): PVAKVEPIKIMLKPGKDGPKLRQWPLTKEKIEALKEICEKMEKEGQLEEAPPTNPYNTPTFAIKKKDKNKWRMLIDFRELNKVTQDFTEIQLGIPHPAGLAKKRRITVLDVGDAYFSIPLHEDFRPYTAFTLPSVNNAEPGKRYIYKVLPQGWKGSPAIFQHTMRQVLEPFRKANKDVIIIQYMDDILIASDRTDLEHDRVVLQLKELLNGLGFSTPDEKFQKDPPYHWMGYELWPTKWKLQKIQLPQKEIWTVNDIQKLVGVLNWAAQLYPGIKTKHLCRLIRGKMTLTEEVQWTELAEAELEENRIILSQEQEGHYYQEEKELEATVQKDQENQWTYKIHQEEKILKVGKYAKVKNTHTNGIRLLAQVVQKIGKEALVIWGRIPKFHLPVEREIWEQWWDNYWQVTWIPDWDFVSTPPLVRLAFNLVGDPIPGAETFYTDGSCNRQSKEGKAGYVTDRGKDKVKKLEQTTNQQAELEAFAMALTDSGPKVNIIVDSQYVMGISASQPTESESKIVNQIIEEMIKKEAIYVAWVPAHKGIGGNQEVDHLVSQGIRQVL
Protocol: The system for the expression of the IT of HIV-2 in E.coli (B. Muller et al. (1991 J. Biol. Chem. 266, 14708-14713) was provided by Dr. R. Goody. The IT of the HIV-2 was purified in the same way as the IT of the HIV-1.
Incubation was carried out at 37° C. for 10 minutes in the presence of various matrix-primers.
a) Poly C-oligo dG: the reaction mixture contained a final volume of 0.05 ml, Tris-HCl 50 mM pH 8.0, MgCl2 5 mM, dithiothreitol 4 mM, 0.48 A260 /ml of poly C-oligo dG (5:1), 1.0 μCi of [^3 H]dGTP (28 Ci/mmole), dGTP 2 μM, KCl 80 mM, 1 μg of bovine serum albumin and IT 20-50 nM.
b) Poly A-oligo dT: the same conditions as in a), except that 0.48 A260 /ml of poly A-oligo dT (5:1), 0.5 μCi of [^3 H]dTTP (46 Ci/mmole), dTTP 20 μM were used.
The reactions were stopped by adding in the cold 1 ml of 10% trichloroacetic acid plus sodium pyrophosphate 0.1 M. The precipitates were filtered through nitrocellulose membranes, washed with 2% trichloroacetic acid, dried and counted in a PPO/POPOP/toluene scintillation mixture.
All the compounds were dissolved in dimethyl#sulphoxide (DMSO). The test samples were prepared in the presence of the same final concentration of DMSO. IC50 is the concentration required to inhibit the activity of the IT of the recombinant HIV-1 by 50%.

isolated virion HIV-1LAI = test: infectivity of the isolated virion after treatment with inhibitors (HT4LacZ cells); type: cell-based
Protocol: H9 cells chronically infected with HIV-1LAI (10^8 /ml) were cocultivated with MT4 cells (10^8 /ml) for 48 hours in an RMPI medium supplemented by 10% of calf foetal serum (CFS). The cells were then removed by centrifugation and then the supernatant liquid was filtered (0.45 μm) to remove residual cells and cell debris.
After having been incubated with the various inhibitors, the viral supernatants (200 μl) were deposited in the filtering part of a VectaSpin tube (WHATMAN) fitted with an ANAPORE membrane of porosity 0.02 μm. For 10 minutes they were subjected to centrifugation, the acceleration of which reached 6000 g at the filtering membrane. The viral residuums thereby obtained (10-15 μl ) were washed 3 times under the same conditions with 500 μl of RPMI then restored to their initial volumes with RPMI containing 10% of CFS.
The HT4LacZ-1 cells were kept in a DMEM medium (glucose 4.5 g/l) supplemented with 10% of calf foetal serum in the presence of Gentamycin (50 mg/l). These cells stemmed from Hela cells in which had been cloned, on the one hand the gene coding for the human CD4 so as to render them susceptible to infection by the HIV (Chesebro and Wehrly, 1988, J. Virol., 62, 3779-3788), and on the other hand the gene for β-Galactosidase which, placed under the dependent of the LTR of the HIV-1 served as a marker for the viral infection (Rocancourt et al. (1990) J. Virol. 1990 64-6, 2660-2688). When the virus infects such cells after its integration into the cellular genome, the production of the regulatory protein TAT activates the LTR of the HIV. The result is an activation of the gene of β-Galactosidase which leads to its production in the intracellular medium and more particularly in the nucleus. It is this protein that serves as a marker of the infection.
The evening of day 0, the HT4LacZ-1 cells were diluted at the rate of 75000 cells per ml of medium. 100 μl of this suspension was then distributed over a flat bottomed plate with 96 wells and was cultivated overnight at 37° C. (5% of CO2).
The morning of day 1, the supernatant liquid was removed by aspiration. Each well was then complemented with 200 μl of the viral supernatant dilutions to be tested. Each dilution was made in a DMEM medium (glucose 4.5 g/l) supplemented with 10% of CFS. The plates were then placed in an environment at 37° C. in the presence of 5% of CO2.
After 48 hours of culture, the supernatant liquid was aspirated, then each well was washed 3 times in PBS before being complemented with 200 μl of developing buffer (Tris-HCl 50 mM pH=8.5, ONPG 5 mg/ml β-mercapto-ethanol 7 μl/ml Triton×100 0.05%). After 4 hours of incubation at 37° C., the optical density of each well was measured.
The concentration of each of the inhibitors of the IT of the HIV-1 was adjusted to 50 mM in DMSO. The later dilutions were carried out on RPMI 1640. 2 μl of suitable dilutions of each of these inhibitors were added to 198 μl of a freshly unfrozen viral suspension. After 3 hours of incubation at ambient temperature, these suspensions were filtered on 0.02 μ VecraSpin tubes, then washed 3 times with 500 μl of RPMI 1640. The viral residuums were then adjusted to 200 μL with the culture medium (RPMI-10% CFS), then tested with regard to their infectivity on HT4LacZ cells.

PBMC = test: cytotoxicity on PBMC; type: cell-based; details: Table 4, 7200 min
Protocol: In parallel experiments, the cytotoxicity of the molecules was measured on non-infected cells, after an incubation of 5 days in the presence of these molecules, by using a […] titration (MTT test) based on the ability of the mitochondrial dehydrogenases of the living cells to reduce 3-(4,5-dimethylthiazol-2-yl)-2,5-diphenyltetrazolium bromide in formazan (Mosmann et al. J. Immunol. Methods ([…]), 65, 55-63). The concentration cytotoxic at 50% (CC50) is the concentration at which the DO540 has been reduced to half and is calculated by using the program mentioned above.

## CCc1c(C)[nH]c(=O)c([N+](=O)[O-])c1Sc1cc(C)cc(C)c1 [Compound 7c, 5-ethyl-6-methyl-3-nitro-4-(3', 5'-dimethylphenyl)thio-pyridin-2(1H)-one]
[1]
  IC50: < 0.0001 µM
IT of HIV-2
  effect on activity of the IT of HIV-2: not affected
Isolated virion HIV-1LAI; Human immunodeficiency virus 1, 0.1 μM inhibitor, 3 h, 100 TCID50, compared with viral supernatant subjected to same treatments, mean of 1 to 4 experiments, read-out: Activity of the isolated virions after treatment
  activity at 0.1 µM: 60%
Isolated virion HIV-1LAI; Human immunodeficiency virus 1, 1 μM inhibitor, 3 h, 100 TCID50, compared with viral supernatant subjected to same treatments, mean of 1 to 4 experiments, read-out: Activity of the isolated virions after treatment
  activity at 1 µM: 1%
Isolated virion HIV-1LAI; Human immunodeficiency virus 1, 10 μM inhibitor, 3 h, 100 TCID50, compared with viral supernatant subjected to same treatments, mean of 1 to 4 experiments, read-out: Activity of the isolated virions after treatment
  activity at 10 µM: 0%
Isolated virion HIV-1LAI; incubation of 45 minutes, preliminary experiments
  inhibition in infectivity: greater than 98%
Isolated virion HIV-1LAI; isolated virion
  activity on the isolated virion (in words): truly active on the isolated virion; also recorded: capable, after having penetrated the viral particle, of inhibiting the inverse transcriptase and of suppressing the viral infectivity
PBMC; line HIV-1 6 type D/PBMC
  CC50: > 10 µM
PBMC; line HIV-1 4200 type E/PBMC
  CC50: > 10 µM
PBMC; line HIV-2 D194/PBMC
  CC50: > 10 µM

Source: patent US6015820A, “4-Aryl-thio-pyridin-2(1H)-ones, medicines containing them and their uses in the treatment of illnesses linked to HIV” (priority 1995, dated 2000)
